{"source": "patent US6140364A", "about": "“Arachidonic acid metabolite, 16-HETE” (The University of Vermont and State Agricultural College, priority 1996, dated 2000)", "key": {"[1]": {"test_system": "neutrophil aggregation stimulated by fMLP", "experiment": "fMLP-induced neutrophil aggregation in diluted whole human blood", "assay_type": "cell-based", "conditions": "for inhibition at 1 µM: 10 min, 1 μM HETE, N = 3 to 4, read-out: Aggregation (percent of inhibition from HETE untreated cells); for inhibition of fMLP-induced neutrophil aggregation: ≤10 μM", "procedure": "(§1) Neutrophil activity: Stimulated neutrophil aggregation and oxygen free radical release were examined in whole human blood using a whole-blood aggregometer-chemiluminometer (Chronolog, Haverton, Pa.) as described Bednar et al. J. Thromb. Thrombol. 1, 179-185 (1995). Blood samples containing heparin (1 U/ml) as the anticoagulant were diluted in HBSS in proportion 1 to 9. Diluted blood aliquots (1 ml) were stirred (400 rpm) in a prewarmed (37° C.) siliconized cuvette containing cytochalasin b (5 μg/ml) and luminol (in 8 μl DMSO, 500 μM final concentration) and the test HETE (concentration 0.01 to 10 μM) for 10 min. Neutrophils were stimulated with a submaximal dose of FMLP (5×10^-7 M final concentration). The aggregation and chemiluminescence were simultaneously measured as changes of impedance and luminescence respectively. The fMLP-induced chemiluminescence was calculated as the peak height of the reaction."}, "[2]": {"test_system": "basal human neutrophils (adhesion to a gelatin matrix)", "experiment": "Neutrophil adhesion to gelatin matrix, basal (unstimulated)", "assay_type": "cell-based", "conditions": "for inhibition of neutrophil adhesion, basal: 20-HETE at ≤10 μM, 16-HETE isomers 10^-8 to 10^-5 M; for inhibition at 1 µM: Homo sapiens, Neutrophil, 10 min preincubation; for potency of neutrophil inhibition relative to the other stereoisomer: unstimulated and stimulated neutrophils", "procedure": "(§2) Preparation of human polymorphonuclear leukocytes: Venous blood (60-70 ml) was collected from four healthy, normal volunteers into syringes containing heparin (1 U/ml). Polymorphonuclear leukocytes (PMNs) were isolated by a histopaque density gradient technique as previously described in Liu et al., Adhesion, Its role in Inflammatory Disease, Freeman and Co., New York, 1992, pp 189-192. Briefly, blood aliquots (6 ml) were layered over two layers (3 ml) of histopaque 1077 and 1119 in a conical centrifuge tube. The sample was then subjected to centrifugation at 100× g for 30 minutes at room temperature and the top layer, containing the neutrophils, was carefully collected. Hypotonic lysis was used to separate out the red blood cells. The neutrophils were then isolated from the sample by centrifugation (2000× g) and suspended in Hanks balanced salt solution (HBSS) containing 1 mM Ca^2+ and 0.8 mM Mg^2+ for studies involving arachidonic acid metabolism, and in M199 (with 1% BSA) for neutrophil adhesion assays. Total cells were counted using a hemocytometer and leukocytes were counted after staining with Wright-Giemsa stain. For each experiment, the cell preparations used contain ≥97% neutrophils, having ≥95% viability as determined by a trypan blue exclusion assay.\nNeutrophil adhesion: Isolated neutrophils were resuspended in M199 containing 1% BSA with a final concentration of 3×10^6 cells per ml. Cells suspensions (1 ml) were incubated with or without a test compound, 16(S)-HETE, 16(R)-HETE, or 20-HETE (concentrations 1 nM to 10 μM) for 10 min and then placed into gelatin-coated wells and further incubated for 20 min at 37° C. The wells were washed three times with 0.5 ml of solution M199 to remove non-adherent cells. The adherent cells were then removed by addition of 0.4 ml of 0.25% trypsin-EDTA in 0.1 M PBS to the gelatin-coated wells and incubation for 10 min at 37° C. The incubates were transferred and the wells were washed with 0.1 ml of M199 solution. The amount of cells in combined solutions was counted. In some experiments, the adhesion of neutrophils was stimulated by addition of 1 U/ml of thrombin to neutrophil suspension immediately prior to the transfer of cells to the wells. Experiments were performed in duplicates for each concentration of HETE. The inhibition of adhesion was expressed as percent of cells remaining in suspension (non-adherent) relative to control. The range of adherent PMNs in control incubations was 6 to 23%. This was increased two-fold in the presence of thrombin."}, "[3]": {"test_system": "oxygen free radicals (OFR) release stimulated by fMLP", "experiment": "fMLP-stimulated oxygen free radical (OFR) release, chemiluminescence, in diluted human blood", "assay_type": "cell-based", "conditions": "10 min, 1 μM HETE, fMLP 5×10^-7 M, N = 3 to 4, read-out: OFR Release (percent of inhibition from HETE untreated cells)", "procedure": "as §1"}, "neutrophil aggregation": {"test_system": "neutrophil aggregation", "experiment": "Neutrophil aggregation (inventors' finding, method not given at the place)", "assay_type": "cell-based"}, "[4]": {"test_system": "thrombin-stimulated human neutrophils (adhesion to a gelatin matrix)", "experiment": "Neutrophil adhesion to gelatin matrix, thrombin-stimulated", "assay_type": "cell-based", "conditions": "for inhibition at 1 µM: Homo sapiens, Neutrophil, thrombin 1 U/ml, 3×10^6 cells/ml, 10 min preincubation", "procedure": "as §2\nNeutrophil adhesion: Isolated neutrophils were resuspended in M199 containing 1% BSA with a final concentration of 3×10^6 cells per ml. Cells suspensions (1 ml) were incubated with or without a test compound, 16(S)-HETE, 16(R)-HETE, or 20-HETE (concentrations 1 nM to 10 μM) for 10 min and then placed into gelatin-coated wells and further incubated for 20 min at 37° C. The wells were washed three times with 0.5 ml of solution M199 to remove non-adherent cells. The adherent cells were then removed by addition of 0.4 ml of 0.25% trypsin-EDTA in 0.1 M PBS to the gelatin-coated wells and incubation for 10 min at 37° C. […] The amount of cells in combined solutions was counted. […] The inhibition of adhesion was expressed as percent of cells remaining in suspension (non-adherent) relative to control. […]"}, "human neutrophils": {"test_system": "human neutrophils", "experiment": "Agonist activity on human neutrophils", "assay_type": "cell-based", "conditions": "≤20 μM"}, "[5]": {"test_system": "intact canine and human neutrophils", "conditions": "cited from earlier work"}, "[6]": {"test_system": "formation of product A by human neutrophils", "experiment": "Inhibition of arachidonic acid metabolism (formation of product A) in intact human neutrophils", "assay_type": "cell-based", "conditions": "SKF 525A 100 μM, BW755C 94 μM, 10 min preincubation", "procedure": "as §2, with “The neutrophils were then isolated from the sample by centrifugation (2000× g) and suspended in Hanks balanced salt solution (HBSS) containing 1 mM Ca^2+ and 0.8 mM Mg^2+ for studies involving arachidonic acid metabolism, and in M199 (with 1% BSA) for neutrophil adhesion assays.” left out, “assay. […]” for “assay.”\nAfter ten minutes in arachidonic acid the reaction was terminated by the addition of cold methanol (four volumes). […] The effluent was passed through a UV detector (HP1050/ChemStation-Hewlett-Packard, Palo Alto, Calif.) and a radioactivity detector (Radiomatic, Meridian, Conn.) with a splitter (ratio 1:10) and collected in 1 ml fractions."}, "[7]": {"test_system": "platelet or other leukocyte", "experiment": "Platelet or other leukocyte activity or function"}, "[8]": {"conditions": "Neutrophil, fMLP 5×10^-7 M, diluted human blood"}}, "data": [{"smiles": "O=C(O)CCC/C=C\\C/C=C\\C/C=C\\C/C=C\\CCCCCO", "note": "[20-HETE, reference compound]", "values": [{"measurement": "inhibition at 1 µM", "setting": "[1]; [8]", "value": "8.1 ± 2.6", "unit": "%"}, {"measurement": "inhibition of fMLP-induced neutrophil aggregation", "setting": "[1]", "value": "not active"}, {"measurement": "inhibition of neutrophil adhesion, basal", "setting": "[2]", "value": "did not inhibit neutrophil adhesion"}, {"measurement": "inhibition at 1 µM", "setting": "[3]", "value": "3.9 ± 13.4", "unit": "%"}, {"measurement": "inhibition of neutrophil aggregation", "setting": "neutrophil aggregation", "value": "neither 20-HETE nor 15-HETE inhibited neutrophil aggregation"}, {"measurement": "inhibition of neutrophil adhesion, thrombin-stimulated", "setting": "[4]; thrombin-stimulated, 20-HETE at ≤10 μM, 16-HETE isomers 10^-8 to 10^-5 M", "value": "did not inhibit neutrophil adhesion"}, {"measurement": "agonist activity on human neutrophils", "setting": "human neutrophils", "value": "no detectable agonist activity"}]}, {"smiles": "CCCC[C@H](O)/C=C\\C/C=C\\C/C=C\\C/C=C\\CCCC(=O)O", "note": "[16(S)-HETE, S-stereoisomer of 16-hydroxyeicosatetraenoic acid]", "values": [{"measurement": "inhibition at 1 µM", "setting": "[1]; [8]", "value": "7 ± 3.5", "unit": "%"}, {"measurement": "inhibition of fMLP-induced neutrophil aggregation", "setting": "[1]", "value": "not active"}, {"measurement": "inhibition at 1 µM", "setting": "[2]; gelatin matrix", "value": "39 ± 8", "unit": "%"}, {"measurement": "inhibition of neutrophil adhesion, basal", "setting": "[2]", "value": "inhibited neutrophil adhesion in a dose-dependent manner"}, {"measurement": "potency of neutrophil inhibition relative to the other stereoisomer", "setting": "[2]", "value": "less potent"}, {"measurement": "inhibition at 1 µM", "setting": "[3]", "value": "5.6 ± 16.7", "unit": "%"}, {"measurement": "inhibition at 1 µM", "setting": "[4]", "value": "40 ± 14", "unit": "%"}, {"measurement": "agonist activity on human neutrophils", "setting": "human neutrophils", "value": "no detectable agonist activity"}]}, {"smiles": "CCCCC[C@H](O)/C=C/C=C\\C/C=C\\C/C=C\\CCCC(=O)O", "note": "[15-HETE]", "values": [{"measurement": "inhibition of neutrophil aggregation", "setting": "neutrophil aggregation", "value": "neither 20-HETE nor 15-HETE inhibited neutrophil aggregation"}]}, {"smiles": "[C-]#[O+]", "note": "[carbon monoxide]", "values": [{"measurement": "inhibition of formation of polar arachidonic acid metabolites", "setting": "[5]", "value": "formation can be inhibited"}]}, {"smiles": "NC1=NN(c2cccc(C(F)(F)F)c2)CC1", "note": "[BW755C]", "values": [{"measurement": "inhibition of formation of product A", "setting": "[6]", "value": "not with BW755C"}]}, {"smiles": "CCCCC(O)/C=C\\C/C=C\\C/C=C\\C/C=C\\CCCC(=O)O", "note": "(stereo not shown) [16-HETE, 16-hydroxyeicosatetraenoic acid]", "values": [{"measurement": "effect on platelet or other leukocyte activity or function", "setting": "[7]", "value": "does not affect platelet or other leukocyte activity or function"}]}, {"smiles": "CCCC(C(=O)OCCN(CC)CC)(c1ccccc1)c1ccccc1", "note": "[SKF525A]", "values": [{"measurement": "inhibition of formation of product A", "setting": "[6]", "value": "can be inhibited with SKF525A"}, {"measurement": "inhibition of formation of polar arachidonic acid metabolites", "setting": "[5]", "value": "formation can be inhibited"}]}, {"smiles": "CCCC[C@@H](O)/C=C\\C/C=C\\C/C=C\\C/C=C\\CCCC(=O)O", "note": "[16(R)-HETE, 16(R)-hydroxy-5,8,11,14-eicosatetraenoic acid]", "values": [{"measurement": "inhibition at 1 µM", "setting": "[1]; [8]", "value": "42 ± 11", "unit": "%"}, {"measurement": "IC50", "setting": "[1]; Neutrophil, fMLP 5×10^-7 M, diluted human blood, read-out: IC50, inhibition of fMLP-induced neutrophil aggregation", "value": 1200, "unit": "nM"}, {"measurement": "inhibition of neutrophil adhesion to gelatin", "setting": "[2]; 10 μM, preincubation", "value": "completely inhibited"}, {"measurement": "inhibition at 1 µM", "setting": "[2]; gelatin matrix", "value": "73 ± 11", "unit": "%"}, {"measurement": "inhibition of neutrophil adhesion, basal", "setting": "[2]", "value": "inhibited neutrophil adhesion in a dose-dependent manner"}, {"measurement": "preincubation time required to inhibit adhesion", "setting": "[2]; gelatin matrix", "value": 10, "unit": "min"}, {"measurement": "potency of neutrophil inhibition relative to the other stereoisomer", "setting": "[2]", "value": "more potent than the effect observed with the opposite stereoisomer"}, {"measurement": "inhibition at 1 µM", "setting": "[3]", "value": "8.9 ± 5.1", "unit": "%"}, {"measurement": "inhibition at 1 µM", "setting": "[4]", "value": "50 ± 4", "unit": "%"}, {"measurement": "agonist activity on human neutrophils", "setting": "human neutrophils", "value": "no detectable agonist activity"}]}]}
